Measurements reported in PubChem BioAssay AID2060889 (Molecular Pharmacology Branch, DTP, NCI, 2025).

System: LG0567-F671-PDC complex spheroids viability
Assay: Anticancer human tumor LG0567-F671-PDC patient-derived lung adenocarcinoma cell line growth inhibition [RAS]
Details: for IC50: curve of first compound; for viability, T/C: stronger effect = lower value
Procedure, shortened: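 Agents were tested in combination matrices in half-log decrements from a top concentration at or near clinical Cmax (10 microM if undetermined). Targets were multi-cell spheroids of tumour lines plus HUVEC and MSC stromal cells.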
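Also: spheroids exposed to compound for seven days before readout.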
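For IC50 in this document: luminescence signal used as a proxy for viable cells.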

IC50 (second compound 0.00316 µM): < 3.16 nM | IC50 (second compound 0.01 µM): < 3.16 nM | IC50 (second compound 0.0316 µM): < 3.16 nM | IC50 (second compound 0.1 µM): < 3.16 nM | IC50 (second compound 0.316 µM): < 3.16 nM | IC50 (second compound 1 µM): < 3.16 nM
Structure (SMILES): O=C(c1ccc(F)c(F)c1Nc1ccc(I)cc1F)N1CC(O)([C@@H]2CCCCN2)C1 + C=CC(=O)N1CCN(c2nc(OCC3CCCN3C)nc3c(F)c(-c4nc(N)cc(C)c4C(F)(F)F)c(Cl)cc23)C(C)C1
viability, T/C (second compound 0.00316 µM, first compound 0.00316 µM): 15.6% | viability, T/C (second compound 0.00316 µM, first compound 0.01 µM): 16.9% | viability, T/C (second compound 0.00316 µM, first compound 0.0316 µM): 8.91% | viability, T/C (second compound 0.00316 µM, first compound 0.1 µM): 8.75% | viability, T/C (second compound 0.00316 µM, first compound 0.316 µM): 3.51% | viability, T/C (second compound 0.00316 µM, first compound 1 µM): 1.58% | viability, T/C (second compound 0.01 µM, first compound 0.00316 µM): 12.4% | viability, T/C (second compound 0.01 µM, first compound 0.01 µM): 11.6% | viability, T/C (second compound 0.01 µM, first compound 0.0316 µM): 10.7% | viability, T/C (second compound 0.01 µM, first compound 0.1 µM): 5.03% | viability, T/C (second compound 0.01 µM, first compound 0.316 µM): 3.8% | viability, T/C (second compound 0.01 µM, first compound 1 µM): 1.56% | viability, T/C (second compound 0.0316 µM, first compound 0.00316 µM): 11.8% | viability, T/C (second compound 0.0316 µM, first compound 0.01 µM): 8.27% | viability, T/C (second compound 0.0316 µM, first compound 0.0316 µM): 7.53% | viability, T/C (second compound 0.0316 µM, first compound 0.1 µM): 5.24% | viability, T/C (second compound 0.0316 µM, first compound 0.316 µM): 3.75% | viability, T/C (second compound 0.0316 µM, first compound 1 µM): 1.45% | viability, T/C (second compound 0.1 µM, first compound 0.00316 µM): 11.5% | viability, T/C (second compound 0.1 µM, first compound 0.01 µM): 9.3% | viability, T/C (second compound 0.1 µM, first compound 0.0316 µM): 6.61% | viability, T/C (second compound 0.1 µM, first compound 0.1 µM): 5.01% | viability, T/C (second compound 0.1 µM, first compound 0.316 µM): 2.96% | viability, T/C (second compound 0.1 µM, first compound 1 µM): 1.42% | viability, T/C (second compound 0.316 µM, first compound 0.00316 µM): 12.2% | viability, T/C (second compound 0.316 µM, first compound 0.01 µM): 9.6% | viability, T/C (second compound 0.316 µM, first compound 0.0316 µM): 6.94% | viability, T/C (second compound 0.316 µM, first compound 0.1 µM): 5.35% | viability, T/C (second compound 0.316 µM, first compound 0.316 µM): 3.61% | viability, T/C (second compound 0.316 µM, first compound 1 µM): 1.71% | viability, T/C (second compound 1 µM, first compound 0.00316 µM): 12.3% | viability, T/C (second compound 1 µM, first compound 0.01 µM): 10.1% | viability, T/C (second compound 1 µM, first compound 0.0316 µM): 7.82% | viability, T/C (second compound 1 µM, first compound 0.1 µM): 5.94% | viability, T/C (second compound 1 µM, first compound 0.316 µM): 4.07% | viability, T/C (second compound 1 µM, first compound 1 µM): 1.77%
